In the NIST ThermoML archive (doi:10.1021/je900260g):

Experiment: mn = molality of the nth substance listed, in mol/kg
Conditions: 101 kPa, Liquid

NC(CO)(CO)CO [2-amino-2-(hydroxymethyl)-1,3-propanediol] + O
mass density [kg/m3]
Conditions | m1 = 1.667 | m1 = 2.294 | m1 = 2.945 | m1 = 3.66 | m1 = 4.271 | m1 = 4.908 | m1 = 5.586
298.15 K | 1043.81 | 1053.88 | 1065.01 | 1077.08 | 1086.34 | 1098.03 | 1106.97
303.15 K | 1042.04 | 1052.01 | 1063.04 | 1075.01 | 1084.19 | 1095.81 | 1104.68
310.15 K | 1039.3 | 1049.14 | 1060.05 | 1071.88 | 1080.98 | 1092.51 | 1101.29
318.15 K | 1035.79 | 1045.51 | 1056.29 | 1068.02 | 1077.02 | 1088.46 | 1097.18
323.15 K | 1033.4 | 1043.01 | 1053.79 | 1065.43 | 1074.4 | 1085.8 | 1094.46
328.15 K | 1030.82 | 1039.97 | 1051.16 | 1062.67 | 1071.63 | 1083.04 | 1091.67

O=S(=O)(O)CCCCNC(CO)(CO)CO [N-tris(Hydroxymethyl)methyl-4-aminobutanesulfonic acid] + O
mass density [kg/m3]
Conditions | m1 = 0.9378 | m1 = 1.552 | m1 = 2.487 | m1 = 4.08 | m1 = 4.796 | m1 = 5.154 | m1 = 5.549
298.15 K | 1067.23 | 1100.73 | 1143.55 | 1200.45 | 1218.48 | 1228.57 | 1235.88
303.15 K | 1065.48 | 1098.86 | 1141.42 | 1198.12 | 1216.1 | 1226.17 | 1233.46
310.15 K | 1062.76 | 1095.93 | 1138.29 | 1194.76 | 1212.71 | 1222.74 | 1229.98
318.15 K | 1059.29 | 1092.31 | 1134.48 | 1190.76 | 1208.68 | 1218.68 | 1225.89
323.15 K | 1056.9 | 1089.87 | 1131.99 | 1188.17 | 1206.07 | 1216.06 | 1223.25
328.15 K | 1054.08 | 1086.99 | 1129.4 | 1185.52 | 1203.41 | 1213.41 | 1220.58
